In PubChem BioAssay (NCI):
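1) Cells in 96-well plates. 2) Compound, 48 h, 5 concentrations. 3) Linear interpolation between surrounding doses. 4) Unreached endpoint = highest concentration. At the GI50, growth is halved. The concentration for full growth arrest is given as TGI.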

Key:
Assay in all cases: NCI anticancer screen, dose series, 48 h
[1] = test system: CAKI-1 renal
[2] = test system: HCT-116 colon
[3] = test system: IGROV1 ovarian
[4] = test system: MDA-MB-435
[5] = test system: NCI-H23 lung
[6] = test system: SF-295 CNS
[7] = test system: SK-OV-3 ovarian
[8] = test system: SNB-19 CNS
[9] = test system: T-47D breast
[10] = test system: TK-10 renal
[11] = test system: UACC-257 melanoma

Compound | TGI [1] | TGI [2] | TGI [3] | TGI [4] | TGI [5] | TGI [6] | TGI [7] | TGI [8] | TGI [9] | TGI [10] | TGI [11] | GI50 [1] | GI50 [2] | GI50 [3] | GI50 [5] | GI50 [6] | GI50 [8] | GI50 [9] | GI50 [10] | GI50 [11]
CCCCOCCOCCOC1=CC(=O)c2c(O)ccc(O)c2C1=O | 3.76 µM | 3.22 µM | 3.38 µM | 0.356 µM | 3.32 µM | 3.06 µM | > 10 µM | 3.19 µM | 6.16 µM | 5.28 µM | 2.97 µM |  |  |  |  |  |  |  |  | 
Clc1ccc(Cl)c(N=Nc2cc3c4c(c2)CCN4CCC3)c1 | > 10 µM | > 10 µM | > 10 µM | > 10 µM | > 10 µM | > 10 µM | > 10 µM | > 10 µM | > 10 µM | > 10 µM | > 10 µM |  |  |  |  |  |  |  |  | 
CS(=O)(=O)N1CC(CCl)c2ccc(NO)cc21 (stereo unspecified) | 27.6 µM | 32 µM | 29 µM | 35.4 µM | 18 µM | 61.9 µM | > 31.6 µM | > 86.4 µM | 60.1 µM | 51.1 µM | 40.6 µM |  |  |  |  |  |  |  |  | 
COC1(CC[C@@H](C)COC2OC(CO)C(O)C(O)C2O)O[C@H]2C[C@H]3[C@@H]4CC=C5C[C@@H](OC6OC(CO)C(OC7OC(C)C(O)C(O)C7O)C(O)C6OC6OC(C)C(O)C(O)C6O)CC[C@]5(C)[C@H]4CC[C@]3(C)[C@H]2[C@@H]1C (stereo partly specified) | 2.61 µM | 10.4 µM | 7.16 µM | 4.18 µM | 9.14 µM | 5.22 µM | 3.09 µM | 6.54 µM | 10.9 µM | 23.1 µM | 8.38 µM | 1.25 µM | 1.96 µM | 2.5 µM | 2.95 µM | 2.02 µM | 2.46 µM | 4.08 µM | 8.04 µM | 2.56 µM
CCc1n[nH]c(=O)n1CCCCCCCCn1c(CC)n[nH]c1=O | > 100 µM | > 100 µM | > 100 µM | > 100 µM | > 100 µM | > 100 µM | > 100 µM | > 100 µM | > 100 µM | > 100 µM | > 100 µM |  |  |  |  |  |  |  |  | 
COc1ccc(Nc2nc3ccccc3n3cccc23)cc1OC | 89.1 µM | 36.4 µM | 52.3 µM | 26.7 µM | 27.9 µM | 35.4 µM | 63.5 µM | > 100 µM | 15.2 µM | 39 µM | 29.4 µM |  |  |  |  |  |  |  |  | 
O=c1[nH]/c(=C/c2ccc3c(c2)OCO3)c(=O)[nH]/c1=C/c1ccc2c(c1)OCO2 | > 10 µM | > 10 µM | > 10 µM | > 10 µM | > 10 µM | > 10 µM | > 10 µM | > 10 µM | > 10 µM | > 10 µM | > 10 µM |  |  |  |  |  |  |  |  | 
Cc1c(C)c2c(c(N)c1C#N)C(=O)N(O)C2=O | > 100 µM | > 100 µM | > 100 µM | > 100 µM | > 100 µM | > 100 µM | > 100 µM | > 100 µM | > 100 µM | > 100 µM | > 100 µM |  |  |  |  |  |  |  |  | 
CC(CSC(=N)N)C(N)=O (stereo unspecified) | > 100 µM | > 100 µM | > 100 µM | > 100 µM | > 100 µM | > 100 µM | > 100 µM | > 100 µM | > 100 µM | > 100 µM | > 100 µM |  |  |  |  |  |  |  |  | 
CCN(CC)CCCNc1c2c(Cl)cc(Cl)cc2nc2nc(=O)[nH]c(C)c12 | > 100 µM | 36.9 µM | > 100 µM | 49.2 µM | > 100 µM | > 100 µM | 58 µM | 44.3 µM | > 100 µM | > 100 µM | > 100 µM |  |  |  |  |  |  |  |  | 
CN(C)c1ccc(/C=C/C(=O)c2ccc(O)cc2)cc1 | > 100 µM | > 68 µM | > 100 µM | 3.22 µM | > 100 µM | > 41.6 µM | 61.9 µM | > 100 µM | 57.6 µM | > 100 µM | > 92.4 µM |  |  |  |  |  |  |  |  | 
C[C@@H](CC(O)C(O)C(C)(C)O)C1CCC23CC12CCC1[C@@]2(C)CCC(O)C(C)(C)C2CC(OC2OC(CO)C(O)C(O)C2O)[C@]13C (stereo partly specified) | > 10 µM | > 10 µM | > 10 µM | > 10 µM | > 10 µM | > 10 µM | > 10 µM | > 10 µM | > 10 µM | > 10 µM | > 10 µM |  |  |  |  |  |  |  |  | 
FC(F)(F)c1ccccc1C1SCC2=Nc3ccccc3CN21 (stereo unspecified) | > 100 µM | 23.1 µM | 29.7 µM | 93.1 µM | 26.6 µM | 26.2 µM | 42 µM | 26.3 µM | 38.4 µM | 29.9 µM | 36.6 µM |  |  |  |  |  |  |  |  | 
[N-]=[N+]=Nc1ccccc1-c1ccccc1[N+](=O)[O-] | > 100 µM | > 100 µM | > 100 µM | > 100 µM | > 100 µM | > 100 µM | > 100 µM | > 100 µM | > 100 µM | > 100 µM | 71.7 µM |  |  |  |  |  |  |  |  | 
COc1ccc(C2c3cc4c(cc3OC(NNc3ccccc3)C2C)OCO4)cc1 (stereo unspecified) | > 100 µM | 43.2 µM | > 100 µM | > 100 µM | > 100 µM | > 100 µM | > 100 µM | > 100 µM | > 100 µM | > 100 µM | 86.3 µM |  |  |  |  |  |  |  |  | 
COC(=O)C(CC(C)C)NC(=O)C(NC(=O)c1ccc(-c2ccc(Cl)cc2Cl)o1)C(C)C (stereo unspecified) | > 100 µM | 29.2 µM | > 100 µM | > 100 µM | > 100 µM | 52.6 µM | > 100 µM | > 100 µM | > 100 µM | 84.5 µM | 64.9 µM |  |  |  |  |  |  |  |  | 
C1CNOCCCONCCCNOCCCONC1 | > 100 µM | > 100 µM | > 100 µM | > 100 µM | > 100 µM | > 100 µM | > 100 µM | > 100 µM | 44.4 µM | 84.5 µM | > 100 µM |  |  |  |  |  |  |  |  | 
